Six compounds from patent US5928933A, “Process for the enzymatic resolution of N-(alkoxycarbonyl)-4-ketoproline alkyl esters or N-(alkoxycarbonyl)-4-hydroxyproline alkyl esters using Candida antarctica lipase B” (priority 1998, dated 1999) can be followed below.

In data set [1] the target is T1, Candida antartica lipase fraction B (CALB) (Moesziomyces antarcticus, UniProt P41365).
T1 construct: purchased Boehringer Mannheim CHIRAZYME L-2
T1 sequence (P41365 26-342): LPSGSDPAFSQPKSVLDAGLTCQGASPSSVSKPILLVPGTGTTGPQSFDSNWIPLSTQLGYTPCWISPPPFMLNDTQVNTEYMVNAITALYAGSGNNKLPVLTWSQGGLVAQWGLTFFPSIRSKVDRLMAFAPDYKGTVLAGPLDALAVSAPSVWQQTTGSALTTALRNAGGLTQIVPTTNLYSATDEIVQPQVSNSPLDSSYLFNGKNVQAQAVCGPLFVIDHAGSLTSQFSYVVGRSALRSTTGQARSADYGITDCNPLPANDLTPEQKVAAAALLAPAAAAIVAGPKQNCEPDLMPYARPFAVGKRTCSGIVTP
Type of data set: biochemical. The protocol: Using CALB for the diastereomeric resolution of five of the six possible pairs of diastereomers of N-(methoxycarbonyl)-4-hydroxyproline methyl esters produced the diastereomeric excesses at the indicated conversions listed in Table 1 below.
(§1) A 3.0 mL aqueous solution containing 50 mM N-(methoxycarbonyl)-trans-4-hydroxy-L-proline methyl ester and 50 mM N-(methoxycarbonyl)-cis-4-hydroxy-D-proline methyl ester in 0.100M potassium phosphate (pH 7.0) was mixed with 2.1 mg/mL of Candida antartica lipase fraction B at 25° C. The reaction was analyzed by removal of a 0.200 mL sample and mixing with an equivalent volume of 0.100M propionic acid (HPLC internal standard) in water. The resulting solution was filtered through a 10K molecular weight cut-off filter to remove the enzyme and the filtrate analyzed by high pressure liquid chromatography on a HPX-87H column (Bio-Rad, 30 cm×7.8 mm) to determine the percent conversion of each isomer of the diastereomeric mixture, and the diastereomeric excess of the N-(methoxycarbonyl)-cis-4-hydroxy-D-proline methyl ester.
A 2.0 mL aqueous solution containing 50 mM N-(methoxycarbonyl)-trans-4-hydroxy-L-proline methyl ester and 50 mM N-(methoxycarbonyl)-cis-4-hydroxy-D-proline methyl ester in 0.100M potassium phosphate (pH 7.0) was mixed with 403 mg of immobilized Candida antartica lipase fraction B (Boehringer Mannheim, CHIRAZYME® L-2, c.-f., C2, lyo.) at 31° C. The reaction was analyzed by mixing the entire reaction mixture with an equivalent volume of 0.100M propionic acid (HPLC internal standard) in water […]. An aliquot of the resulting solution was filtered through a 10K molecular weight cut-off filter to remove the enzyme and the filtrate analyzed by high pressure liquid chromatography on a HPX-87H column (Bio-Rad, 30 cm×7.8 mm) to determine the percent conversion of each isomer of the distereomeric mixture, and the diastereomeric excess of the N-(methoxycarbonyl)-cis-4-hydroxy-D-proline methyl ester. After 7 h, a 94% diastereomeric excess of N-(methoxycarbonyl)-cis-4-hydroxy-D-proline methyl ester was obtained at 49% conversion of the diastereomeric mixture (3.2% N-(methoxycarbonyl)-trans-4-hydroxy-L-proline methyl ester remained).
as §1, with “A 5.0” for “A 3.0”, “containing 51” for “containing 50”, “and 51” for “and 50”, “with 50” for “with 2.1”, “the N-(methoxycarbonyl)-trans-4-hydroxy-D-prolinemethyl” for “the N-(methoxycarbonyl)-cis-4-hydroxy-D-proline methyl”
A 5.0 mL aqueous solution containing 50 mM N-(methoxycarbonyl)-cis-4-hydroxy-D-proline methyl ester and 50 mM N-(methoxycarbonyl)-cis-4-hydroxy-L-proline methyl ester in 0.100M potassium phosphate (pH 7.0) and 50 mg/mL of Candida antartica lipase fraction B was mixed at 25° C. The reaction was analyzed by removal of two 0.200 mL aliquots at pre-determined times. One 0.200 mL aliquot was mixed with an equivalent volume of 0.100M propionic acid (HPLC internal standard) in water, and the resulting solution filtered through a 10K molecular weight cut-off filter to remove the enzyme. The filtrate was then analyzed by high pressure liquid chromatography on a HPX-87H column (Bio-Rad, 30 cm×7.8 mm) to determine the total percent conversion of both the D- and L-proline isomers of the N-(methoxycarbonyl)-cis-4-hydroxyproline methyl esters. […]

In data set [2] the target is T1, Candida antartica lipase fraction B (CALB). Type of data set: biochemical. The following applies: 0.20m succinate, 5 h, pH 6. The protocol: (§2) Reacting a 0.10M solution of the 1:1 mixture of KDP(MEMC) and KLP(MEMC) in 0.20M succinate (pH 6.0) at 25° C. for 5 h with approximately 1-3 mg/mL of Candida antartica lipase fraction B (CALB) produced a 95% ee (substrate) of KDP(MEMC) at 51% conversion. […] The calculated enantioselectivity (E) at 51% conversion was E=81.
(§3) The enzymatic hydrolysis reaction of KDP(MEMC) and KLP(MEMC) using CALB (described above) was repeated at pH 5.0 in 0.20M acetate buffer (Example 2), and a 100% ee (substrate) of the D-isomer was obtained at 51% conversion (E=>1000); the reaction rate was approximately 50% of the rate at pH 6.0, and the slight loss of the D-isomer at pH 5.0 was again observed in the absence of added enzyme (95% recovery at pH 5.0 after 24 h with no enzyme).
The procedure described in Example I was repeated using Candida antartica lipase fraction B (CALB), except that the reaction was run in 0.200M sodium cetate (pH 5.0) instead of the 0.20M sodium succinate buffer (pH 6.0) used for Candida antartica lipase fraction B in Example 1. Aqueous solutions (5.0 mL) containing varying concentrations of a racemic mixture of N-(methoxycarbonyl)-4-keto-D,L-proline methyl ester and CALB were mixed at 15° C., 25° C., 35° C. or 45° C.
An aqueous solution (5.0 mL) containing 25 mM N-(methoxycarbonyl)-4-keto-Dproline methyl ester and 25 mM N-(methoxycarbonyl)-4-keto-L-proline methyl ester in 0.200M sodium acetate (pH 5.0) was mixed with 2.5 g of immobilized Candida antartica lipase fraction B (Boehringer Mannheim, CHIRAZYME® L-2, c.-f., C2, lyo.) at 25° C. […] The dichloromethane extract was then analyzed by chiral gas chromatography on a Chiraldex G-TA column (Advanced Separation Technologies, Inc., 50 m×0.32 mm ID) to determine the amounts of the unreacted D- and L-isomers. After 31 h, an 85% enantiomeric excess of N-(methoxycarbonyl)-4-keto-D-proline methyl ester was obtained at 41% conversion of the racemic mixture.
A 200 mL aqueous solution containing 0.200M sodium acetate (pH 5.0), 1.3325 g of Candida antartica lipase fraction B, and 4.02 g of racemic N-(methoxycarbonyl)-4-keto-D,L-proline methyl ester (100 mM) was stirred at 25° C. After 24 h, an 96% enantiomeric excess of N-(methoxycarbonyl)-4-keto-D-proline methyl ester was obtained at 50% conversion of the racemic mixture. The reaction mixture was filtered using a 10,000 MWCO membrane filter (Amicon) to remove the enzyme catalyst, and the filtrate extracted with three 200 mL portions of dichloromethane. The combined organic extracts were dried over magnesium sulfate, filtered, and the dichloromethane removed from the filtrate by rotary evaporation at reduced pressure. Residual dichloromethane was removed from the resulting colorless oil at high vacuum (50 millitorr) to produce N-(methoxycarbonyl)-4-keto-D-proline methyl ester as a white solid (1.99 g, 99% isolated yield, 99% purity (by GC), 97% ee).
An aqueous solution (2.0 mL) containing 50 mM N-(ethoxycarbonyl)-4-keto-D-proline ethyl ester and 50 mM N-(ethoxycarbonyl)-4-keto-L-proline ethyl ester in 0.200M sodium acetate (pH 5.0) and 30 mg/mL of Candida antartica lipase fraction B was mixed at 25° C. […] The dichloromethane extract was then analyzed by chiral gas chromatography on a Chiraldex G-TA column (Advanced Separation Technologies, Inc., 50 m×0.32 mm ID) to determine the amounts of the unreacted D- and L-isomers. After 24 h, a 100% enantiomeric excess of N-(ethoxycarbonyl)-4-keto-D-proline ethyl ester was obtained at 51% conversion of the racemic mixture.
An aqueous solution (1.0 mL) containing 19 mM of N-(2-phenylacetyl)-4-keto-D-proline methyl ester and 19 mM of N-(2-phenylacetyl)-4-keto-L-proline methyl ester in 0.200M sodium acetate (pH 5.0) and 25 mg/mL of Candida antartica lipase fraction B was mixed at 25° C. […]

A short description of data set [3]: Stability of aqueous solutions of the esters in the absence of enzyme. The note with it: for isomer lost without added enzyme: pH 6.0, identical reaction conditions (0.20M succinate, 25° C.), 5 h. The class given is physicochemical. The protocol:
as §2, §3
The pH of the reaction mixture is also chosen to optimize the reaction rate, the stability of the enzyme catalyst activity, and the stability of the ketoproline or hydroxyproline derivatives. The stability of aqueous solutions of N-(alkoxy-carbonyl)-4-ketoproline alkyl esters or N-(alkoxycarbonyl)-4-hydroxyproline alkyl esters were dependent on pH. […] For resolution of mixtures of N-(alkoxycarbonyl)-4-keto-D,L-proline alkyl esters, a pH range of from 3.0 to 6.0 is preferred, and a pH range of from 4.0 to 5.0 is most preferred. For resolution of diastereomeric mixtures of N-(alkoxycarbonyl)-4-hydroxy-proline alkyl esters, a pH range of from 3.0 to 7.5 is preferred, and a pH range of from 6.0 to 7.0 is most preferred.

The target in data set [4] is T1, Candida antartica lipase fraction B (CALB). The experiment in a line: Relative rates of hydrolysis of N-(alkoxycarbonyl)-trans-4-hydroxy-L-proline methyl esters by CALB. The following applies: 50 mM substrate, 3.0 mg/mL CALB, 25° C. Type of data set: biochemical. The protocol: A 2.0 mL aqueous solution containing 50 mM N-(methoxycarbonyl)-trans-4-hydroxy-L-proline methyl ester, or 50 mM N-(ethoxycarbonyl)-trans-4-hydroxy-L-proline methyl ester, or 50 mM N-(tert-butoxycarbonyl)-trans-4-hydroxy-L-proline methyl ester in 0.100M potassium phosphate (pH 7.0) and 3.0 mg/mL of Candida antartica lipase fraction B was mixed at 25° C. The reactions were analyzed by removal of 0.200 mL aliquots at pre-determined times and mixing the sample with an equivalent volume of 0.100M propionic acid (HPLC internal standard) in water, and filtering the resulting solution through a 10K molecular weight cut-off filter to remove the enzyme. The filtrate was then analyzed by high pressure liquid chromatography on a HPX-87H column (Bio-Rad, 30 cm×7.8 mm) to determine the percent conversion of the N-(alkoxycarbonyl)-trans-4-hydroxy-L-proline methyl ester. Complete hydrolysis of the methyl ester of the N-methoxy-, N-ethoxy-, and N-tert-butoxycarbonyl derivatives occurred in 5 h, 2 h, and 6 h, respectively, and the initial reaction rates were 5.7, 18.7, and 3.3 micromoles/h/mg enzyme catalyst, respectively.

Where [5] appears, read: candida antartica lipase b, 24 h, 51000 µM, pH 7.

Where two headings read alike, the source gives them in different places.

`COC(=O)[C@H]1C[C@@H](O)CN1C(=O)OC` [CHDP(MEMC), N-(methoxycarbonyl)-cis-4-hydroxy-D-proline methyl ester]: in data set [1] (under reaction conditions), the “methyl ester hydrolysis by CALB” value is on record as “no hydrolysis”.

With `COC(=O)[C@@H]1C[C@H](O)CN1C(=O)OC` [CHLP(MEMC), N-(methoxycarbonyl)-cis-4-hydroxy-L-proline methyl ester], the isomer remaining entry in data set [1] (50 mM each, 50 mg/mL CALB, pH 7.0, 25° C., 47 h) was “no N-(methoxycarbonyl)-cis-4-hydroxy-L-proline methyl ester remained”; in data set [1] (setting [5]), 3.0%.

For the compound `COC(=O)[C@H]1CC(=O)CN1C(=O)OC` [KDP(MEMC), N-(methoxycarbonyl)-4-keto-D-proline methyl ester], the “share of isomer remaining at 51% conversion” value in data set [2] was 97.5%. Further, the “recovery with no enzyme” value in data set [3] (pH 5.0, after 24 h) was determined as 95%. Further, the “isomer lost without added enzyme” value in data set [3] is listed as “approximately 3%”.

For the compound `COC(=O)[C@@H]1CC(=O)CN1C(=O)OC` [KLP(MEMC), N-(methoxycarbonyl)-4-keto-L-proline methyl ester], the “share of isomer remaining at 51% conversion” value in data set [2] was 2.5%. Besides, the “isomer lost without added enzyme” value in data set [3] is recorded as “approximately 3%”.

Take `COC(=O)[C@@H]1C[C@@H](O)CN1C(=O)OC` [THLP(MEMC), N-(methoxycarbonyl)-trans-4-hydroxy-L-proline methyl ester]: the isomer remaining result in data set [1] (50 mM each, 2.1 mg/mL CALB, pH 7.0, 25° C., 24 h) is “no N-(methoxycarbonyl)-trans-4-hydroxy-L-proline methyl ester remained”; in data set [1] (50 mM each, 4.0 mg/mL CALB, pH 7.0, 25° C., 24 h), “no N-(methoxycarbonyl)-trans-4-hydroxy-L-proline methyl ester remained”; in data set [1] (candida antartica lipase b, 7 h, 50000 µM, pH 7), 3.2%. For the same compound, in data set [4] (0.100M potassium phosphate pH 7.0), the “time to complete hydrolysis of the methyl ester” value was found to be 5 h. Besides, in data set [4] (pH 7.0), the initial reaction rate is recorded as 5.7 micromoles/h/mg enzyme catalyst.

Compound `COC(=O)[C@H]1C[C@H](O)CN1C(=O)OC` [THDP(MEMC), N-(methoxycarbonyl)-trans-4-hydroxy-D-proline methyl ester] registered an isomer remaining in data set [1] (setting [5]) of 82.7%.
